According to patent US11001590B2, “Pyrazolopyrimidine derivatives” (BAYER ANIMAL HEALTH GMBH, priority 2016, dated 2021):
pEC50: −log10 of the molar value.

What was measured:
[1] = test system: Nippostrongylus brasiliensis; experiment: In vitro assay 2: Nippostrongylus brasiliensis (NIPOBR), acetylcholine esterase readout; details: adult worms, read-out: activity (reduction of AChE compared to negative control); for inhibition at 1 µg/mL: 1 μg/ml (1 ppm); for inhibition at 10 µg/mL: 10 μg/ml (10 ppm)
Protocol: In Vitro Assay 2: Nippostronqylus Brasiliensis (NIPOBR)
Adult Nippostrongylus brasiliensis were washed with saline buffer containing 100 U/ml penicillin, 0.1 mg/ml streptomycin and 2.5 μg/ml amphotericin B. Test compounds were dissolved in DMSO and worms were incubated in medium in a final concentration of 10 μg/ml (10 ppm) respectively 1 μg/ml (1 ppm). An aliquot of the medium was used to determine the acetylcholine esterase activity in comparison to a negative control. The principle of measuring acetylcholine esterase as readout for anthelmintic activity was described in Rapson et al (1986) and Rapson et al (1987).

[2] = test system: Dirofilaria immitis microfilariae; experiment: In vitro assay 3: Dirofilaria immitis microfilariae (DIROIM L1), motility; details: 72 h, reduction of motility vs negative control, 72 h incubation
[3] = test system: Dirofilaria immitis third-stage larvae; experiment: In vitro assay 4: Dirofilaria immitis (DIROIM L4), motility of larvae; details: 72 h
Cooperia curticei = experiment: In vitro assay 5: Cooperia curticei (COOPCU), larval mortality; details: 120 h, read-out: activity (percentage of larval mortality)
Protocol: In Vitro Assay 5: Cooperia curticei (COOPCU)
Solvent: Dimethyl Sulfoxide
Approximately 40 nematode larvae (Cooperia curticei) are transferred into a test tube containing the compound solution.
After 5 days percentage of larval mortality is recorded. 100% efficacy means all larvae are killed; 0% efficacy means no larvae are killed.

[4] = test system: Litomosoides sigmodontis third-stage larvae; experiment: In vitro assay 7: Litomosoides sigmodontis L3 (LTMOSI), motility; details: 72 h, reduction of motility vs negative control, 72 h incubation
Haemonchus contortus = experiment: In vitro assay 6: Haemonchus contortus (HAEMCO), larval mortality; details: Haemonchus contortus, 120 h, read-out: activity (percentage of larval mortality)
Protocol: In Vitro Assay 6: Haemonchus contortus (HAEMCO)
Solvent: dimethyl sulfoxide
Approximately 40 larvae of the red stomach worm (Haemonchus contortus) are transferred into a test tube containing compound solution.
After 5 days the percentage of larval mortality is recorded. 100% efficacy means all larvae are killed, 0% efficacy means no larvae are killed.

[5] = log P by HPLC on reversed phase columns (Method L0; [a] acidic, [b] neutral range)
Protocol: Calibration was done with straight-chain alkan-2-ones (with 3 to 16 carbon atoms) with known log P values (measurement of log P values using retention times with linear interpolation between successive alkanones). Lambda-max-values were determined using UV-spectra from 200 nm to 400 nm and the peak values of the chromatographic signals.

C. elegans Slo-1a = C. elegans Slo-1a (Caenorhabditis elegans, UniProt Q95V25); experiment: In vitro assay 1: C. elegans Slo-1a, action at a recombinant C. elegans CHO cell line (membrane potential measurement)
Chain of C. elegans Slo-1a (Q95V25 whole entry): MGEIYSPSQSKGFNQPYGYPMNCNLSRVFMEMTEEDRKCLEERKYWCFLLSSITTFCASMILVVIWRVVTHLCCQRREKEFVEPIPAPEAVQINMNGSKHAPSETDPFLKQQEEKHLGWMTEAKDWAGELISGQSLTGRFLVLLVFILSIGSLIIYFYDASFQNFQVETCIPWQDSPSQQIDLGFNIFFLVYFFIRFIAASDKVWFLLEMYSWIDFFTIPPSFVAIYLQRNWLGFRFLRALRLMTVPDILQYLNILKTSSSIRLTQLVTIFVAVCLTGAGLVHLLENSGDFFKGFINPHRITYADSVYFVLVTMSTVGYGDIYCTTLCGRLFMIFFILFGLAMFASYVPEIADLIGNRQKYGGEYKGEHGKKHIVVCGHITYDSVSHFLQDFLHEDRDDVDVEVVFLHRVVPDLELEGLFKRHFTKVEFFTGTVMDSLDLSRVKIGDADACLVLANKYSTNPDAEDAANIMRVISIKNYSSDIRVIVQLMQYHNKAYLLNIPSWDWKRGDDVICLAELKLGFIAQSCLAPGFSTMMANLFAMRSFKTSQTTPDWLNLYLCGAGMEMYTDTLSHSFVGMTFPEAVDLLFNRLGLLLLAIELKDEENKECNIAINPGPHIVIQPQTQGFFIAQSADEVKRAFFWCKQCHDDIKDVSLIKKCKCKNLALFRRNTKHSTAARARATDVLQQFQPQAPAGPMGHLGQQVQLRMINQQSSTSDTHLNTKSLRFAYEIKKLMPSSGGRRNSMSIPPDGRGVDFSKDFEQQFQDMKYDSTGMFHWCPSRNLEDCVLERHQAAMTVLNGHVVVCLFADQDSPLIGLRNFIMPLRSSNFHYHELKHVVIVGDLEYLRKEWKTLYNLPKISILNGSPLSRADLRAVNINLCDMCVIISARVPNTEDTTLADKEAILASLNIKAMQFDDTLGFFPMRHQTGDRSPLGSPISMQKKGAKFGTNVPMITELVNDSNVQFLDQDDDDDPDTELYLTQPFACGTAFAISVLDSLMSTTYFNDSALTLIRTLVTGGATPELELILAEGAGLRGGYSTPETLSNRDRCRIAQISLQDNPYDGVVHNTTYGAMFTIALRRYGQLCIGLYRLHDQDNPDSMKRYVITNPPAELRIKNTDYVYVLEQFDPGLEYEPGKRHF

| Structure (SMILES) | inhibition at 1 µg/mL [1] [%] | inhibition at 10 µg/mL [1] [%] | EC50 [2] [µg/mL] | EC50 [3] [µg/mL] | mortality at 20 ppm (Cooperia curticei) [%] | EC50 [4] [µg/mL] | mortality at 20 ppm (Haemonchus contortus) [%] | chromatographic logP [5] | pEC50 (C. elegans Slo-1a) | mortality at 4 ppm (Haemonchus contortus) [%] |
| --- | --- | --- | --- | --- | --- | --- | --- | --- | --- | --- |
| COc1c(F)ccc(-c2c(C)nn3c(C(C)C)c(C(=O)N[C@H]4CCOc5ccccc54)cnc23)c1F [Example 192] | > 80 | > 80 | < 0.1 | < 0.1 | 100 | < 0.1 | 90 | 4.32 | 9.40 |  |
| Cc1nn2c(C(C)C)c(C(=O)N[C@H]3CCOc4ccccc43)cnc2c1-c1cc(Cl)cc(Cl)c1Cl [Example 234] | > 80 | > 80 | < 0.1 | < 0.1 | 90 | < 0.1 | 90 | 5.48 | 8.90 |  |
| Cc1nn2c(C(C)C)c(C(=O)N[C@H]3CCOc4ccccc43)cnc2c1-c1c(F)ccc(Cl)c1F [Example 255] | > 80 | > 80 | < 0.1 | < 0.1 | 90 | < 0.1 | 90 | 4.72 | 8.80 |  |
| Cc1nn2c(C(C)C)c(C(=O)N[C@H]3CCOc4ccccc43)cnc2c1-c1cc(Cl)ccc1F [Example 256] |  |  | < 0.1 | < 0.1 | 80 | < 0.1 | 80 | 4.87 | 8.60 |  |
| Cc1nn2c(C(C)C)c(C(=O)N[C@H]3CCOc4ccccc43)cnc2c1-c1cccc(N(C)C)c1F [Example 260] | > 80 | > 80 | < 1 |  | 90 |  | 80 | 4.18 | 8.50 |  |
| Cc1nn2c(C3CC3)c(C(=O)N[C@H]3CCc4ccccc43)cnc2c1-c1c(F)ccc(Cl)c1F [Example 436] | > 80 | > 80 | < 0.1 | < 0.1 | 80 | < 0.1 | 80 | 4.18 | 8.80 |  |
| Cc1nn2c(C(C)C)c(C(=O)N[C@H]3CCOc4ccccc43)cnc2c1-c1cccc2c1CCN2C [Example 461] | > 80 | > 80 | < 1 | < 0.1 | 90 | < 0.1 | 80 | 4.11 | 8.70 |  |
| Cc1nn2c(C3CC3)c(C(=O)N[C@H]3CCOc4ccccc43)cnc2c1-c1cccc(F)c1Cl [Example 472] | > 80 |  | < 0.1 | < 0.1 | 80 | < 0.1 |  | 3.72 | 8.80 | 80 |
| Cc1nn2c(N3CCOCC3)c(C(=O)N[C@H]3CCOc4ccccc43)cnc2c1-c1cccc(Cl)c1Cl [Example 517] | > 80 | > 80 | < 0.1 | < 0.1 | 100 | < 0.1 | 100 | 3.51 | 9.20 |  |
| Cc1nn2c(N(C)C)c(C(=O)N[C@H]3CCOc4ccccc43)cnc2c1-c1cccc(Cl)c1Cl [Example 518] | > 80 | > 80 | < 0.1 | < 0.1 | 100 | < 0.1 | 100 | 3.94 | 9.00 |  |
| COc1c(F)cc(F)c(-c2c(C)nn3c(N4CCOCC4)c(C(=O)N[C@H]4CCOc5ccccc54)cnc23)c1F [Example 531] | > 80 |  | < 0.1 | < 0.1 | 100 | < 0.1 | 100 | 2.88 | 9.00 |  |
| Cc1nn2c(N3CCOCC3)c(C(=O)N[C@H]3CCOc4ccccc43)cnc2c1-c1cccc(C(F)(F)F)c1Cl [Example 532] |  |  | < 0.1 |  | 100 |  | 90 | 5.59 | 9.00 |  |
| CNc1c(C(=O)N[C@H]2CCOc3ccccc32)cnc2c(-c3cccc(Cl)c3Cl)c(C)nn12 [Example 548] |  |  | < 0.1 |  | 90 |  | 90 | 4.18 | 8.20 |  |
